Test results as given in BigSolDB 2.1.

Oc1ccc(OCc2ccccc2)cc1
solubility (mole fraction)
Settings | 283.15 K | 288.15 K | 293.15 K | 298.15 K | 303.15 K | 308.15 K | 313.15 K | 318.15 K | 323.15 K | 328.15 K
in ethanol | 0.0483 | 0.056 | 0.0644 | 0.0737 | 0.0846 | 0.0956 | 0.109 | 0.123 | 0.137 | 0.155
in ethylene glycol | 0.0053 | 0.00664 | 0.00822 | 0.0101 | 0.0125 | 0.0149 | 0.018 | 0.0216 | 0.0257 | 0.0302
in isopropanol | 0.0217 | 0.0261 | 0.0308 | 0.0365 | 0.0425 | 0.0503 | 0.0583 | 0.0671 | 0.0778 | 0.0896
in n-propanol | 0.0381 | 0.0446 | 0.052 | 0.0605 | 0.0702 | 0.0804 | 0.0931 | 0.106 | 0.12 | 0.137
in water | 3.57e-06 | 4.49e-06 | 5.64e-06 | 7.04e-06 | 8.71e-06 | 1.07e-05 | 1.3e-05 | 1.57e-05 | 1.91e-05 | 2.29e-05
